Assay [1] concerns the target T1, human α1H T-type channels (Homo sapiens, UniProt O95180).
T1 construct: expressed in transfected cells; host or cells: HEK 293
Kind of assay: T-type calcium channel block, whole cell patch clamp (α1H). In kind it is cell-based. The note with it: HEK cells stably expressing human α1H; mainly non-inactivated protocol; values above 10 μM represented as 10 μM. The procedure:
(§1) T-type calcium channel blocking activity was assayed in human embryonic kidney cells, HEK 293, stably transfected with the T-type calcium channel subunits. Briefly, cells were cultured in Dulbecco's modified eagle medium (DMEM) supplemented with 10% fetal bovine serum, 200 U/ml penicillin and 0.2 mg/ml streptomycin at 37° C. with 5% CO2. At 85% confluency cells were split with 0.25% trypsin/1 mM EDTA and plated at 10% confluency on glass coverslips. At 12 hours the medium was replaced and the cells stably transfected using a standard calcium phosphate protocol and the appropriate calcium channel cDNA's. Fresh DMEM was supplied and the cells transferred to 28° C./5% CO2. Cells were incubated for 1 to 2 days prior to whole cell recording.
(§2) Standard patch-clamp techniques were employed to identify blockers of T-type currents. Briefly, previously described HEK cell lines stably expressing human α1G, α1H and α1I T-type channels were used for all the recordings (passage #: 4-20, 37° C., 5% CO2). Whole cell patch clamp experiments were performed using an Axopatch 200B amplifier (Axon Instruments, Burlingame, Calif.) linked to a personal computer equipped with pCLAMP software. Data were analyzed using Clampfit (Axon Instruments) and SigmaPlot 4.0 (Jandel Scientific). To obtain T-type currents, plastic dishes containing semi-confluent cells were positioned on the stage of a ZEISS AXIOVERT S100 microscope after replacing the culture medium with external solution (see below). Whole-cell patches were obtained using pipettes (borosilicate glass with filament, O.D.: 1.5 mm, I.D.: 0.86 mm, 10 cm length), fabricated on a SUTTER P-97 puller with resistance values of ˜5 MΩ (see below for internal solution).
(§3) In the non-inactivating protocol, the holding potential is set at −110 mV and with a pre-pulse at −100 mV for 1 second prior to the test pulse at −40 mV for 50 ms. In the inactivation protocol, the pre-pulse is at approximately −85 mV for 1 second, which inactivates about 15% of the T-type channels.
(§4) Test compounds were dissolved in external solution, 0.1-0.01% DMSO. After 10 min rest, they were applied by gravity close to the cell using a WPI microfil tubing. The “non-inactivated” pre-pulse was used to examine the resting block of a compound. The “inactivated” protocol was employed to study voltage-dependent block. However, the initial data shown below were mainly obtained using the non-inactivated protocol only. . IC50 values are shown for various compounds of the invention in Table 4 for the drug of interest. Values are shown in μM and values above 10 μM are simply represented as 10 μM.
A general note: Patch clamp records ionic current or voltage across a cell membrane.

Assay [2] concerns the target T2, human α1G T-type channels (Homo sapiens, UniProt O43497).
T2 construct: expressed in transfected cells; host or cells: HEK 293
Kind of assay: T-type calcium channel block, whole cell patch clamp (α1G). In kind it is cell-based. The note with it: HEK cells stably expressing human α1G; mainly non-inactivated protocol; values above 10 μM represented as 10 μM, values below 0.30 μM represented as 0.30 μM. The protocol: as §1, §2, §3, §4

This is an account of results in patent US20090298834A1, “4-(AMINOMETHYL)CYCLOHEXANAMINE DERIVATIVES AS CALCIUM CHANNEL BLOCKERS” (priority 2008, published 2009).

T1 sequence (O95180 whole entry): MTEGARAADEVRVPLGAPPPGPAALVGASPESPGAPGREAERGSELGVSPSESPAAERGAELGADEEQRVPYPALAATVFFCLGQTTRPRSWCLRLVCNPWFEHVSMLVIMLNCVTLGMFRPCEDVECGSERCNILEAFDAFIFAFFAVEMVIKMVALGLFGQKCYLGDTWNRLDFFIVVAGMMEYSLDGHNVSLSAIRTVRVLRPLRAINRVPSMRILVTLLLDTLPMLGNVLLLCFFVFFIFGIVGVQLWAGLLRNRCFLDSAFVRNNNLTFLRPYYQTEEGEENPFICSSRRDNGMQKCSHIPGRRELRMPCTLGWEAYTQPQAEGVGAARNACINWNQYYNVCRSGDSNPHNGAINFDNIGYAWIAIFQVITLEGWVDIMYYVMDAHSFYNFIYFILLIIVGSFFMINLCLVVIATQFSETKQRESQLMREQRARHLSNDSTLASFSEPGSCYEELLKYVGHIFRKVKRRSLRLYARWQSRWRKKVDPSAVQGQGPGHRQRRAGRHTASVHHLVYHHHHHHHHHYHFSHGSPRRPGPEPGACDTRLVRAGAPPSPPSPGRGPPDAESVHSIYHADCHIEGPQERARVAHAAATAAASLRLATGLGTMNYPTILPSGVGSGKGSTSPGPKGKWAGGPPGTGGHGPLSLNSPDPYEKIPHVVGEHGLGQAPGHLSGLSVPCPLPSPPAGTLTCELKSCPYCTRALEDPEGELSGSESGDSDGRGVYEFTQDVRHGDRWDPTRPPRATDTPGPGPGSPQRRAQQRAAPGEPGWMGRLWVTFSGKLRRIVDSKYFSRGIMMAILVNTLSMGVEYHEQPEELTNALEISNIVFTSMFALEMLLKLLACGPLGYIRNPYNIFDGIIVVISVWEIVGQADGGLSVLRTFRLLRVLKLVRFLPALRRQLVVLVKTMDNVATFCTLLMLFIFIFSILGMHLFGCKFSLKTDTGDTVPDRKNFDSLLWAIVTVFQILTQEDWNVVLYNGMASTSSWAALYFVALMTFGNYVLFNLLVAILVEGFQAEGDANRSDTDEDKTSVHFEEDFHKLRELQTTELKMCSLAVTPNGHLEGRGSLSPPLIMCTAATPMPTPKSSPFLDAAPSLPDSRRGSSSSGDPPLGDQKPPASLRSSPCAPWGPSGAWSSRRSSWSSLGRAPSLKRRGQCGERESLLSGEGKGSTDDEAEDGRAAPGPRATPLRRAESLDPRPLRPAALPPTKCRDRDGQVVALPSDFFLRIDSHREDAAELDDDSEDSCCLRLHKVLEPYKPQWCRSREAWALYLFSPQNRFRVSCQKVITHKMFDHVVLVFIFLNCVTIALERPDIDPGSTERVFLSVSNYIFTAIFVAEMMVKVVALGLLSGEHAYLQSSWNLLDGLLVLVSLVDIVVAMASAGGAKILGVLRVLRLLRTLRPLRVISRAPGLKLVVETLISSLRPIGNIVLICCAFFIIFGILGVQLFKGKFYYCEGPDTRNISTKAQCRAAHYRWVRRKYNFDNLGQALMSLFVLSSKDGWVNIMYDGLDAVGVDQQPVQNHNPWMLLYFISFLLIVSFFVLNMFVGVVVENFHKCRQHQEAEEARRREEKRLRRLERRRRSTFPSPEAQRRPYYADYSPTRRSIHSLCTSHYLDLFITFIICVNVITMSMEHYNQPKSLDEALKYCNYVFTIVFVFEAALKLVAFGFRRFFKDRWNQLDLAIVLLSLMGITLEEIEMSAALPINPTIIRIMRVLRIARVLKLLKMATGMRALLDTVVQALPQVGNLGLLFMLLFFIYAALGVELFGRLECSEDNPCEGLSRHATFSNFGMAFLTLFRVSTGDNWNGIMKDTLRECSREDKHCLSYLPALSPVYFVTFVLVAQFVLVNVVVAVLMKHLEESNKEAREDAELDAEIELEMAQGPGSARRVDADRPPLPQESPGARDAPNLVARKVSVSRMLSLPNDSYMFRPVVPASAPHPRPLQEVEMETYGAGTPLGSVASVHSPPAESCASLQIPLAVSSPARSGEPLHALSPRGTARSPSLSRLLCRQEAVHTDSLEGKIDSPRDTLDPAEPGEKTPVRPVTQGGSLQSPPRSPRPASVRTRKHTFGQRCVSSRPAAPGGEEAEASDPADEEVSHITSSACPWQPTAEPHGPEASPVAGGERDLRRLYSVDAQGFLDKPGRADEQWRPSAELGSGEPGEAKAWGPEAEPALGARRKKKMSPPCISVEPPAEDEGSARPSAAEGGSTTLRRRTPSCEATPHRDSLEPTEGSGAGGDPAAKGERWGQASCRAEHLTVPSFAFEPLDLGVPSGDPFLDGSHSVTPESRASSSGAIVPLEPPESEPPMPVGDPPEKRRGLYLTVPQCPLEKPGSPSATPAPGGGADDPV
T2 sequence (O43497 whole entry): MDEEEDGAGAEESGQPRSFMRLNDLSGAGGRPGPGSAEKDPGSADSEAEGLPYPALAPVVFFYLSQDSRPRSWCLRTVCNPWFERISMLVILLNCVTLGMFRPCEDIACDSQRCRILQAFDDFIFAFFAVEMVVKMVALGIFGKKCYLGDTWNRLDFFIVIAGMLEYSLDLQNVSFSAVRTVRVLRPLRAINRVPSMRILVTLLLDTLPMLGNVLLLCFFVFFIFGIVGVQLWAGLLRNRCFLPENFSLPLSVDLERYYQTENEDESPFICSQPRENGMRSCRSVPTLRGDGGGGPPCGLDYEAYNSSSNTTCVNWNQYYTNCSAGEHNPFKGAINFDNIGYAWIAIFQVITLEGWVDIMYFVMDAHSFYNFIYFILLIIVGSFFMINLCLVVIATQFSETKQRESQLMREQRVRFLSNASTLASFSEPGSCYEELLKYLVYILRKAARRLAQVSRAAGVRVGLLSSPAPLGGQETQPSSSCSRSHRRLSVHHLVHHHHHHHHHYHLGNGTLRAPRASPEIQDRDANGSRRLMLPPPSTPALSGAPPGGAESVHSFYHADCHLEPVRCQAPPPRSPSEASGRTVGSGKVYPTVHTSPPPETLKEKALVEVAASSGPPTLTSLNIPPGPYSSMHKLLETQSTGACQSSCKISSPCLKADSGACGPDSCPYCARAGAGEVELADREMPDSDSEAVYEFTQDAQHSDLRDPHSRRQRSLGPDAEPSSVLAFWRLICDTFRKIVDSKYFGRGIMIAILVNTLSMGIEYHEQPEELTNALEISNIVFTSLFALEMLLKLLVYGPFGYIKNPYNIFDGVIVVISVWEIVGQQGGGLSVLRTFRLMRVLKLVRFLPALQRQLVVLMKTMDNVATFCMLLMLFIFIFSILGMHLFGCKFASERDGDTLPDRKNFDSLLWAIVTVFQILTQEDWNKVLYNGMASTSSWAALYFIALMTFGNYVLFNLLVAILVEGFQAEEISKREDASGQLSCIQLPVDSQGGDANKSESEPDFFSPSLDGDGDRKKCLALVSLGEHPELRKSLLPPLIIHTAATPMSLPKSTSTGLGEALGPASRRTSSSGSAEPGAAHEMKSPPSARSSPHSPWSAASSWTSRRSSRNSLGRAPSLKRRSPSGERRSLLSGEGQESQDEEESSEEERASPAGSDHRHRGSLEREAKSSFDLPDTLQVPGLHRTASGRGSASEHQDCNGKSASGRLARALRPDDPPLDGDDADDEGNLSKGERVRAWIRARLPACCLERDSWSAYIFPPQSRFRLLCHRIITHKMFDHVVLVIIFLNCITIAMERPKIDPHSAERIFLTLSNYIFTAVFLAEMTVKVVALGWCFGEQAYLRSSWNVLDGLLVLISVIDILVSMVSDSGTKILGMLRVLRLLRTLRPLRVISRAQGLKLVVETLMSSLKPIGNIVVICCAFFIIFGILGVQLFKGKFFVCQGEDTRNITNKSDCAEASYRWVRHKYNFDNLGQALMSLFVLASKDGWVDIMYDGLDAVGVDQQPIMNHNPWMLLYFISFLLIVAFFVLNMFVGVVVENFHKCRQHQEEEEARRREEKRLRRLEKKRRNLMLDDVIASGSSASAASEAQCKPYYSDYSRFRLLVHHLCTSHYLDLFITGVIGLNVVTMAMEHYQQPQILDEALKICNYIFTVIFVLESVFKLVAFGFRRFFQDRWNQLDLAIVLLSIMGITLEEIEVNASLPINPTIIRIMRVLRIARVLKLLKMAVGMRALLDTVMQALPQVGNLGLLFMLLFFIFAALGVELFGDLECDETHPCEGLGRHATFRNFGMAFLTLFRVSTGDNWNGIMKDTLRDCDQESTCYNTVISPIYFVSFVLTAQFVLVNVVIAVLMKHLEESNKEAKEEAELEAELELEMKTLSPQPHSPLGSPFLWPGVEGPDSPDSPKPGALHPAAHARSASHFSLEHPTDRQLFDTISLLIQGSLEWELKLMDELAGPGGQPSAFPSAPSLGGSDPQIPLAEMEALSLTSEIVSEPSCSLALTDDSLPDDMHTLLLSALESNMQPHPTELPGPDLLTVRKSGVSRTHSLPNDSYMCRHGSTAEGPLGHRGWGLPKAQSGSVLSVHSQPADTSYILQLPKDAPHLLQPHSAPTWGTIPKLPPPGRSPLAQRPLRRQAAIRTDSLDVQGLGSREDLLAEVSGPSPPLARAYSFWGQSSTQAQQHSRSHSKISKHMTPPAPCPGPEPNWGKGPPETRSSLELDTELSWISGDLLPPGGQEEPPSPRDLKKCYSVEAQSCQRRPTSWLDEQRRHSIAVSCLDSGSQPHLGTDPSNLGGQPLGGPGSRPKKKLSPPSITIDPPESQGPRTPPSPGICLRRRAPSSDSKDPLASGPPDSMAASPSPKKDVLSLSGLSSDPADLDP

For orientation: IC50 means the point on the concentration scale where inhibition reaches its midpoint. Regarding `CC(C)(C)[C@H](O)C(=O)NC1CCC(CC(=O)Nc2cc(C(F)(F)F)cc(C(F)(F)F)c2)CC1` (stereo in doubt) [Compound 108, (S)-N-((trans)-4-(2-(3,5-bis(trifluoromethyl)phenylamino)-2-oxoethyl)cyclohexyl)-2-hydroxy-3,3-dimethylbutanamide], the figures for the IC50 in assay [1] and in assay [2] were 1530 nM and 450 nM, respectively.
Taken in the same sequence, the figures for `CC(C)(C)C(O)CN[C@H]1CC[C@@H](CNC(=O)c2cc(C(F)(F)F)cc(C(F)(F)F)c2)CC1` (some centres unmarked) [Compound 1] were 580 nM and 390 nM.
Take `CC(C)(C)C(O)CN[C@H]1CC[C@@H](CNC(=O)c2cc(F)cc(C(F)(F)F)c2)CC1` (stereo partly drawn) [Compound 2, 3-fluoro-N-((cis-4-(2-hydroxy-3,3-dimethylbutylamino)cyclohexyl)methyl)-5-(trifluoromethyl)benzamide]: the IC50 was 550 nM in assay [1] and 450 nM in assay [2].
Regarding `CC(C)(C)C(O)CN[C@H]1CC[C@H](CNC(=O)c2cc(C(F)(F)F)cc(C(F)(F)F)c2)CC1` (stereo partly drawn) [Compound 3, N-((trans-4-(2-hydroxy-3,3-dimethylbutylamino)cyclohexyl)methyl)-3,5-bis(trifluoromethyl)benzamide], the IC50 in assay [1] was 1020 nM; in assay [2] it was 470 nM.
As to `CC(C)(O)CN[C@H]1CC[C@H](CNC(=O)c2cc(C(F)(F)F)cc(C(F)(F)F)c2)CC1` [Compound 4, N-((trans-4-(2-hydroxy-2-methylpropylamino)cyclohexyl)methyl)-3,5-bis(trifluoromethyl)benzamide], the IC50 in assay [1] worked out at 4430 nM; in assay [2], 4540 nM.
On to `O=C(NC[C@H]1CC[C@@H](NCc2ccccc2O)CC1)c1cc(C(F)(F)F)cc(C(F)(F)F)c1` [Compound 7, N-((cis-4-(2-hydroxybenzylamino)cyclohexyl)methyl)-3,5-bis(trifluoromethyl)benzamide], for which the 50% inhibitory concentration (IC50) in assay [1] is 1540 nM; in assay [2], at most 300 nM.
For the molecule `O=C(NC[C@H]1CC[C@@H](NCc2cccnc2F)CC1)c1cc(C(F)(F)F)cc(C(F)(F)F)c1` [Compound 8, N-((cis-4-((2-fluoropyridin-3-yl)methylamino)cyclohexyl)methyl)-3,5-bis(trifluoromethyl)benzamide], the results for the concentration for half-maximal inhibition (IC50) in assay [1] and in assay [2] were 4840 nM and 3350 nM, respectively.
On the same counts, the results for `Cc1cccc(CN[C@H]2CC[C@@H](CNC(=O)c3cc(C(F)(F)F)cc(C(F)(F)F)c3)CC2)c1O` [Compound 9, N-((cis-4-(2-hydroxy-3-methylbenzylamino)cyclohexyl)methyl)-3,5-bis(trifluoromethyl)benzamide] are 710 nM and 850 nM.
`COc1ccccc1CN[C@H]1CC[C@@H](CNC(=O)c2cc(C(F)(F)F)cc(C(F)(F)F)c2)CC1` [Compound 10, N-((cis-4-(2-methoxybenzylamino)cyclohexyl)methyl)-3,5-bis(trifluoromethyl)benzamide]: the IC50 in assay [1] came to 320 nM; in assay [2], 470 nM.
Take `COc1cccnc1CN[C@H]1CC[C@@H](CNC(=O)c2cc(C(F)(F)F)cc(C(F)(F)F)c2)CC1` [Compound 11, N-((cis-4-((3-methoxypyridin-2-yl)methylamino)cyclohexyl)methyl)-3,5-bis(trifluoromethyl)benzamide]: the IC50 turned out to be 2330 nM in assay [1] and 1570 nM in assay [2].
On the same counts, the results for `O=C(NC[C@H]1CC[C@@H](NCc2c(F)cccc2Cl)CC1)c1cc(C(F)(F)F)cc(C(F)(F)F)c1` [Compound 13, N-((cis-4-(2-chloro-6-fluorobenzylamino)cyclohexyl)methyl)-3,5-bis(trifluoromethyl)benzamide] are 2830 nM and 460 nM.
On the same counts, the results for `COc1ccc(CN[C@H]2CC[C@@H](CNC(=O)c3cc(C(F)(F)F)cc(C(F)(F)F)c3)CC2)c(OC)c1` [Compound 14, N-((cis-4-(2,4-dimethoxybenzylamino)cyclohexyl)methyl)-3,5-bis(trifluoromethyl)benzamide] are 560 nM and at most 300 nM.
On the same counts, the results for `O=C(NC[C@H]1CC[C@@H](NCc2ccccc2O)CC1)c1cc(F)cc(C(F)(F)F)c1` [Compound 15, 3-fluoro-N-((cis-4-(2-hydroxybenzylamino)cyclohexyl)methyl)-5-(trifluoromethyl)benzamide] are 1650 nM and 780 nM.
As to `O=C(NC[C@H]1CC[C@@H](NCc2ncccc2O)CC1)c1cc(F)cc(C(F)(F)F)c1` [Compound 16, 3-fluoro-N-((cis-4-((3-hydroxypyridin-2-yl)methylamino)cyclohexyl)methyl)-5-(trifluoromethyl)benzamide], the IC50 is at least 10000 nM in assay [1] and 4440 nM in assay [2].
Taken in the same sequence, the figures for `O=C(NC[C@H]1CC[C@@H](NCc2cccnc2F)CC1)c1cc(F)cc(C(F)(F)F)c1` [Compound 17, 3-fluoro-N-((cis-4-((2-fluoropyridin-3-yl)methylamino)cyclohexyl)methyl)-5-(trifluoromethyl)benzamide] were 4940 nM and 7730 nM.
On the same counts, the results for `Cc1cccc(CN[C@H]2CC[C@@H](CNC(=O)c3cc(F)cc(C(F)(F)F)c3)CC2)c1O` [Compound 18, 3-fluoro-N-((cis-4-(2-hydroxy-3-methylbenzylamino)cyclohexyl)methyl)-5-(trifluoromethyl)benzamide] are 1370 nM and 460 nM.
Taken in the same sequence, the figures for `COc1ccccc1CN[C@H]1CC[C@@H](CNC(=O)c2cc(F)cc(C(F)(F)F)c2)CC1` [Compound 19, 3-fluoro-N-((cis-4-(2-methoxybenzylamino)cyclohexyl)methyl)-5-(trifluoromethyl)benzamide] were 1010 nM and 530 nM.
On to `COc1cccnc1CN[C@H]1CC[C@@H](CNC(=O)c2cc(F)cc(C(F)(F)F)c2)CC1` [Compound 20, 3-fluoro-N-((cis-4-((3-methoxypyridin-2-yl)methylamino)cyclohexyl)methyl)-5-(trifluoromethyl)benzamide], for which the IC50 in assay [1] was 5350 nM; in assay [2], 3320 nM.
Turning to `O=C(NC[C@H]1CC[C@@H](NCc2cccc(F)c2O)CC1)c1cc(F)cc(C(F)(F)F)c1` [Compound 21, 3-fluoro-N-((cis-4-(3-fluoro-2-hydroxybenzylamino)cyclohexyl)methyl)-5-(trifluoromethyl)benzamide], the IC50 in assay [1] is 4580 nM; in assay [2], 840 nM.
With `O=C(NC[C@H]1CC[C@@H](NCc2c(O)cccc2F)CC1)c1cc(F)cc(C(F)(F)F)c1` [Compound 22, 3-fluoro-N-((cis-4-(2-fluoro-6-hydroxybenzylamino)cyclohexyl)methyl)-5-(trifluoromethyl)benzamide], the IC50 in assay [1] is 3080 nM; in assay [2], 990 nM.
`O=C(NC[C@H]1CC[C@@H](NCc2c(F)cccc2Cl)CC1)c1cc(F)cc(C(F)(F)F)c1` [Compound 23, N-((cis-4-(2-chloro-6-fluorobenzylamino)cyclohexyl)methyl)-3-fluoro-5-(trifluoromethyl)benzamide]: the IC50 in assay [1] amounted to 2870 nM; in assay [2], 910 nM.
Consider `COc1ccc(CN[C@H]2CC[C@@H](CNC(=O)c3cc(F)cc(C(F)(F)F)c3)CC2)c(OC)c1` [Compound 24, N-((cis-4-(2,4-dimethoxybenzylamino)cyclohexyl)methyl)-3-fluoro-5-(trifluoromethyl)benzamide], for which the IC50 in assay [1] turned out to be 590 nM; in assay [2], 340 nM.
On to `CC(C)(C)OC(=O)NCCN[C@H]1CC[C@@H](CNC(=O)c2cc(Cl)cc(C(F)(F)F)c2)CC1` [Compound 99, tert-butyl 2-(cis-4-((3-chloro-5-(trifluoromethyl)benzamido)methyl)cyclohexylamino)ethylcarbamate], for which the half-inhibitory concentration (IC50) in assay [1] is 440 nM.
On the same count and under the same terms, then `O=C(CC1CC1)NCCN[C@H]1CC[C@H](CNC(=O)c2cc(C(F)(F)F)cc(C(F)(F)F)c2)CC1` [Compound 103, N-((trans-4-(2-(2-cyclopropylacetamido)ethylamino)cyclohexyl)methyl)-3,5-bis(trifluoromethyl)benzamide], with 2080 nM; and `O=C(NC[C@H]1CC[C@@H](N2CC(C(F)(F)F)(C(F)(F)F)OC2=O)CC1)c1cc(F)cc(C(F)(F)F)c1` [Compound 154, 3-fluoro-N-((cis-4-(2-oxo-5,5-bis(trifluoromethyl)oxazolidin-3-yl)cyclohexyl)methyl)-5-(trifluoromethyl)benzamide], with 6160 nM.
